From ChEMBL document CHEMBL4800729 (2021)

What was measured:
[1] = target: Dual specificity tyrosine-phosphorylation-regulated kinase 1B (Homo sapiens) (UniProt Q9Y463); assay: DYRK1B(h) Millipore kinase panel; settings: Compound concentration 1.0 uM
[2] = target: Fibroblast growth factor receptor 2 (Homo sapiens) (UniProt P21802); assay: FGFR2(h) Millipore kinase panel; settings: Compound concentration 1.0 uM
[3] = target: Sodium-dependent dopamine transporter (Homo sapiens) (UniProt Q01959); settings: Compound concentration 10.0 uM
[4] = target: T1, Alpha-2B adrenergic receptor (Homo sapiens) (UniProt P18089); settings: Compound concentration 10.0 uM
T1 sequence (whole entry): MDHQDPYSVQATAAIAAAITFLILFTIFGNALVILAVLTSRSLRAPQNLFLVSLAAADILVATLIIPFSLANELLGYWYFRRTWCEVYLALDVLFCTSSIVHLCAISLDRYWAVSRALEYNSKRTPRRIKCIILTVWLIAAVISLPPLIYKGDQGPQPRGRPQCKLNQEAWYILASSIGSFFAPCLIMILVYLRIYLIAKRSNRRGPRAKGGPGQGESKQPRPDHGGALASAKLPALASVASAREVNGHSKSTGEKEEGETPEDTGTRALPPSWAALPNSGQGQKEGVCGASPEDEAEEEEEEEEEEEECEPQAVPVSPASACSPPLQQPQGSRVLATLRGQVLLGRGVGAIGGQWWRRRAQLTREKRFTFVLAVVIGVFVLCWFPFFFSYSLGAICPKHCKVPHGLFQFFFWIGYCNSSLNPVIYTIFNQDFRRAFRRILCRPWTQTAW

[5] = target: Dual specificity tyrosine-phosphorylation-regulated kinase 2 (Homo sapiens) (UniProt Q92630); assay: DYRK2(h) Millipore kinase panel; settings: Compound concentration 1.0 uM
Dual specificity tyrosine-phosphorylation-regulated kinase 2 (Homo sapiens), sequence (Q92630 whole entry): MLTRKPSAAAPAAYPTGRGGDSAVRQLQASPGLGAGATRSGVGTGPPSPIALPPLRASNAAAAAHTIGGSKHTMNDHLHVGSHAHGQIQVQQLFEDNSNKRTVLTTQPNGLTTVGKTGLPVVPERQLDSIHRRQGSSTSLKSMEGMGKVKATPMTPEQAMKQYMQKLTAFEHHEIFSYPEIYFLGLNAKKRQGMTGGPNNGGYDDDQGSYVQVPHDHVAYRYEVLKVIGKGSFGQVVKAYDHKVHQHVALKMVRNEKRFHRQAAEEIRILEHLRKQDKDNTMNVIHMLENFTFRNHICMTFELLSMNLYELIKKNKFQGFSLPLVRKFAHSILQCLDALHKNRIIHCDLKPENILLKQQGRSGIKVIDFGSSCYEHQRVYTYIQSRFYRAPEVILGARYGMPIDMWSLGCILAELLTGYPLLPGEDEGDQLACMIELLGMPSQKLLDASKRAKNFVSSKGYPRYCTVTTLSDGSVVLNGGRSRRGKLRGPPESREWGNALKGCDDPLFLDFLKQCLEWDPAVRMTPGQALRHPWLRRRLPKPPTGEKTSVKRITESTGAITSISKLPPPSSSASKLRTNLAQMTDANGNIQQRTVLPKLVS

[6] = target: Tyrosine-protein kinase Lck (Homo sapiens) (UniProt P06239); assay: Lck(h) Millipore kinase panel; settings: Compound concentration 1.0 uM
[7] = target: cGMP-dependent protein kinase 2 (Homo sapiens) (UniProt Q13237); assay: PRKG2(h) Millipore kinase panel; settings: Compound concentration 1.0 uM
[8] = target: Serine/threonine-protein kinase Nek7 (Homo sapiens) (UniProt Q8TDX7); assay: NEK7(h) Millipore kinase panel; settings: Compound concentration 1.0 uM
Serine/threonine-protein kinase Nek7 (Homo sapiens), sequence (Q8TDX7 whole entry, looked up): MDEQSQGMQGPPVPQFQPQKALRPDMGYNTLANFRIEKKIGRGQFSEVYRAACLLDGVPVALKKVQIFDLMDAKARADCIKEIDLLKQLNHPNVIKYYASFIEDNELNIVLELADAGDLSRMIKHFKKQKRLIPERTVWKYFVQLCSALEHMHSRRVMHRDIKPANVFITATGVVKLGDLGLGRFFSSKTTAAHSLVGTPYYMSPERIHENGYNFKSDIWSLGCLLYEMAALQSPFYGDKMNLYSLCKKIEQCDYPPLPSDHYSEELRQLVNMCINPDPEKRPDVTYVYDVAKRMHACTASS

[9] = target: Motilin receptor (Homo sapiens) (UniProt O43193); settings: Compound concentration 10.0 uM
Motilin receptor (Homo sapiens), sequence (O43193 whole entry): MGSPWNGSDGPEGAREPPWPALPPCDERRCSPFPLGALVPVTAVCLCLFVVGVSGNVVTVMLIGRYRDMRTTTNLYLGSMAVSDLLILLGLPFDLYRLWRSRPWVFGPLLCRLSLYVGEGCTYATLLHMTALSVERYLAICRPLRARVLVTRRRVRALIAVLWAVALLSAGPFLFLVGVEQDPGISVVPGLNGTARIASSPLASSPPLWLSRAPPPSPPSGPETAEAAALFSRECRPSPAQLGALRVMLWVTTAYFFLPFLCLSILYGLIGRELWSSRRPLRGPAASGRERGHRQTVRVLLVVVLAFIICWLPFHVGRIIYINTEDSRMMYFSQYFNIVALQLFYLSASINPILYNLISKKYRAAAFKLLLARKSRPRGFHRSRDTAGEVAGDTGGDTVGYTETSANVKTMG

[10] = target: Serine/threonine-protein kinase OSR1 (Homo sapiens) (UniProt O95747); assay: OSR1(h) Millipore kinase panel; settings: Compound concentration 1.0 uM
[11] = target: Receptor tyrosine-protein kinase erbB-2 (Homo sapiens) (UniProt P04626); assay: ErbB2(h) Millipore kinase panel; settings: Compound concentration 1.0 uM
[12] = target: Protein kinase C iota type (Homo sapiens) (UniProt P41743); assay: PKCiota(h) Millipore kinase panel; settings: Compound concentration 1.0 uM
[13] = target: 5-hydroxytryptamine receptor 1B (Homo sapiens, UniProt P28222); settings: Compound concentration 10.0 uM
[14] = target: Phosphodiesterase 3 (Homo sapiens) (UniProt Q14432+Q13370); assay: Inhibition of Phosphodiesterase PDE3 at compound concentration of 10.0 uM in the Eurofins-Panlabs enzyme assay (Eurofins_assay_152000); assay type: protein assay; design: substrate with concentration 1.01 uM [3H] cAMP + cAMP, incubation time 20 min, incubation temperature 25 C; settings: Compound concentration 10.0 uM
[15] = target: Adenosine receptor A1 (Homo sapiens) (UniProt P30542); settings: Compound concentration 10.0 uM
Adenosine receptor A1 (Homo sapiens), sequence (P30542 whole entry): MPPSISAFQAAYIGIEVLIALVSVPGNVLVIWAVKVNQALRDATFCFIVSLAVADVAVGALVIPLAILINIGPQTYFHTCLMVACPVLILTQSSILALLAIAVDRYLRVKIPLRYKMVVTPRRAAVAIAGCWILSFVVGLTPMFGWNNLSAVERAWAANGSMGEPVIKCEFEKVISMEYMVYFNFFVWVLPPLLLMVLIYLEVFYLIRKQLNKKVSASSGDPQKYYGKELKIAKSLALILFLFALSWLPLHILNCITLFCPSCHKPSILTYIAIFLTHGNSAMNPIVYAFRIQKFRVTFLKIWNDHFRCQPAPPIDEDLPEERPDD

[16] = target: Adenosine receptor A2a (Homo sapiens) (UniProt P29274); settings: Compound concentration 10.0 uM
[17] = target: Myotonin-protein kinase (Homo sapiens) (UniProt Q09013); assay: DMPK(h) Millipore kinase panel; settings: Compound concentration 1.0 uM
[18] = target: Cyclin-dependent kinase 13/Cyclin-K (Homo sapiens) (UniProt Q14004+O75909); assay: CDK13/cyclinK(h) Millipore kinase panel; assay type: protein-complex assay; settings: Compound concentration 1.0 uM
[19] = target: Serine/threonine-protein kinase SIK3 (Homo sapiens) (UniProt Q9Y2K2); assay: SIK3(h) Millipore kinase panel; settings: Compound concentration 1.0 uM
[20] = target: Tyrosine-protein kinase receptor UFO (Homo sapiens) (UniProt P30530); assay: Axl(h) Millipore kinase panel; settings: Compound concentration 1.0 uM
[21] = target: Adenosine receptor A3 (Homo sapiens) (UniProt P0DMS8); settings: Compound concentration 10.0 uM
Adenosine receptor A3 (Homo sapiens), sequence (P0DMS8 whole entry, the tested form may be a part): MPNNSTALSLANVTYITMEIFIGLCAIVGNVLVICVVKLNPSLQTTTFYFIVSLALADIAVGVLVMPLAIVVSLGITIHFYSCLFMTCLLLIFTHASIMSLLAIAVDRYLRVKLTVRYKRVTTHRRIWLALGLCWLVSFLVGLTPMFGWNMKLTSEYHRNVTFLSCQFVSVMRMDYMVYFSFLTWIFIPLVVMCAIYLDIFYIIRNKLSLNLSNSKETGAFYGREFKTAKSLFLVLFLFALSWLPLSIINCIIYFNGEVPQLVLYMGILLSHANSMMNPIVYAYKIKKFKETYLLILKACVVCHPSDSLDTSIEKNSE

[22] = target: LIM domain kinase 1 (Homo sapiens) (UniProt P53667); assay: LIMK1(h) Millipore kinase panel; settings: Compound concentration 1.0 uM
[23] = target: Tyrosine-protein kinase HCK (Homo sapiens) (UniProt P08631); assay: Hck(h) activated Millipore kinase panel; settings: Compound concentration 1.0 uM
[24] = target: Delta-type opioid receptor (Homo sapiens) (UniProt P41143); settings: Compound concentration 10.0 uM
Delta-type opioid receptor (Homo sapiens), sequence (P41143 whole entry): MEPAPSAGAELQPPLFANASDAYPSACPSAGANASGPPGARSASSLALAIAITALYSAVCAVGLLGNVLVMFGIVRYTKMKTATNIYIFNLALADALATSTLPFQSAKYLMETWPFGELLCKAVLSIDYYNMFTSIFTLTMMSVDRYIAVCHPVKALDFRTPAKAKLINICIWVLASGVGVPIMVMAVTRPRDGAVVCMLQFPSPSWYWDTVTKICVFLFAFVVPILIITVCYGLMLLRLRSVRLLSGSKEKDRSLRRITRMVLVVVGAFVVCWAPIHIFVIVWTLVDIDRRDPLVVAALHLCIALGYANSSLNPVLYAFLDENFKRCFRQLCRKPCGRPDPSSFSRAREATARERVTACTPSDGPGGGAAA

[25] = target: RAC-gamma serine/threonine-protein kinase (Homo sapiens) (UniProt Q9Y243); assay: PKBgamma(h) Millipore kinase panel; settings: Compound concentration 1.0 uM
[26] = target: Vascular endothelial growth factor receptor 2 (Homo sapiens) (UniProt P35968); assay: KDR(h) Millipore kinase panel; settings: Compound concentration 1.0 uM
[27] = target: cGMP-dependent protein kinase 1 (Homo sapiens) (UniProt Q13976); assay: PKG1alpha(h) Millipore kinase panel; settings: Compound concentration 1.0 uM
[28] = target: Sigma intracellular receptor 2 (Homo sapiens) (UniProt Q5BJF2); settings: Compound concentration 10.0 uM
[29] = target: Serine/threonine-protein kinase PAK 6 (Homo sapiens) (UniProt Q9NQU5); assay: PAK6(h) Millipore kinase panel; settings: Compound concentration 1.0 uM
[30] = target: Death-associated protein kinase 2 (Homo sapiens) (UniProt Q9UIK4); assay: DAPK2(h) Millipore kinase panel; settings: Compound concentration 1.0 uM
Death-associated protein kinase 2 (Homo sapiens), sequence (Q9UIK4 whole entry, looked up): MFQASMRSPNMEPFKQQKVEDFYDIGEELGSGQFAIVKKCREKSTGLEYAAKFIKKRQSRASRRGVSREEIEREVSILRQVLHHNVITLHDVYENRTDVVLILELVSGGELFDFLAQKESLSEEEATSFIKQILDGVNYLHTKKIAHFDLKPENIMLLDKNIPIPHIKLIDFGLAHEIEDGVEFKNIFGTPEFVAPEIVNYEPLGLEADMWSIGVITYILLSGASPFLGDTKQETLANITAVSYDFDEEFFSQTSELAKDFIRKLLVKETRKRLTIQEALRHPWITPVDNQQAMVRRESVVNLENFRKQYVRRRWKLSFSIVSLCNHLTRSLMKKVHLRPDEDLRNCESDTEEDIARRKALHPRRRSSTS

[31] = target: Inhibitor of nuclear factor kappa-B kinase subunit alpha (Homo sapiens) (UniProt O15111); assay: IKKalpha(h) Millipore kinase panel; settings: Compound concentration 1.0 uM
D(1A) dopamine receptor = D(1A) dopamine receptor (Homo sapiens, UniProt P21728); settings: Compound concentration 10.0 uM
[32] = target: Endothelin receptor type B (Homo sapiens) (UniProt P24530); settings: Compound concentration 10.0 uM
Endothelin receptor type B (Homo sapiens), sequence (P24530 whole entry): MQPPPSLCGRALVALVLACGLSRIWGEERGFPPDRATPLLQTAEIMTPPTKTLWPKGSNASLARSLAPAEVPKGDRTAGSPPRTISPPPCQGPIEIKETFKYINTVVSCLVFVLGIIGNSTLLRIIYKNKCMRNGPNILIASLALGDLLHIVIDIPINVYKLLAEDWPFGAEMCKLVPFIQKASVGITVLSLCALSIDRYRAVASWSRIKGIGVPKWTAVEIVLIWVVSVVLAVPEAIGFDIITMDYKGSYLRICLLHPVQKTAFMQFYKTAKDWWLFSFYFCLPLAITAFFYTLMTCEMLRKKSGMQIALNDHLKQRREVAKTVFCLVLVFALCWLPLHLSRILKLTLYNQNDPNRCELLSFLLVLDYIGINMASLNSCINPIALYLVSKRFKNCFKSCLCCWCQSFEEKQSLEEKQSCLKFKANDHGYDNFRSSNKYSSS

[33] = target: Ephrin type-A receptor 2 (Homo sapiens) (UniProt P29317); assay: EphA2(h) Millipore kinase panel; settings: Compound concentration 1.0 uM
[34] = target: Serine/threonine-protein kinase pim-1 (Homo sapiens) (UniProt P11309); assay: Pim-1(h) Millipore kinase panel; settings: Compound concentration 1.0 uM
[35] = target: Serine/threonine-protein kinase PAK 1 (Homo sapiens) (UniProt Q13153); assay: PAK1(h) Millipore kinase panel; settings: Compound concentration 1.0 uM
[36] = target: Androgen receptor (Homo sapiens) (UniProt P10275); settings: Compound concentration 10.0 uM
[37] = target: T1, Alpha-2B adrenergic receptor (Homo sapiens); settings: Compound concentration 10.0 uM; remark: listed apart in the source
[38] = target: Phosphorylase b kinase gamma catalytic chain, skeletal muscle/heart isoform (Homo sapiens) (UniProt Q16816); assay: PhKgamma1(h) Millipore kinase panel; settings: Compound concentration 1.0 uM
Phosphorylase b kinase gamma catalytic chain, skeletal muscle/heart isoform (Homo sapiens), sequence (Q16816 whole entry, looked up, canonical isoform): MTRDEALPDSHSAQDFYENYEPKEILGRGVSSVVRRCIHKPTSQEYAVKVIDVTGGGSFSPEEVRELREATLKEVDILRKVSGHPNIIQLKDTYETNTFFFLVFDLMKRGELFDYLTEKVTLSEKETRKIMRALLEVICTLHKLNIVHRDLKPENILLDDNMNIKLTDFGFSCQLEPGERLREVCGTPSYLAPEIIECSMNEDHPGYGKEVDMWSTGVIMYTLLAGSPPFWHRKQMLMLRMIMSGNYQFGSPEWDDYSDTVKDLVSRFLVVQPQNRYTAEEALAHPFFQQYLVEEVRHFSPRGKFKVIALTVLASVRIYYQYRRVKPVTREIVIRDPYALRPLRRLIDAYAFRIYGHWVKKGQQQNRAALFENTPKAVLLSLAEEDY

[39] = target: Glutamate NMDA receptor (Rattus norvegicus) (UniProt P35439+Q00959+Q00960+Q00961+Q62645+Q8VHN2+Q9R1M7); settings: Compound concentration 10.0 uM
[40] = target: Focal adhesion kinase 1 (Homo sapiens) (UniProt Q05397); assay: FAK(h Millipore kinase panel; settings: Compound concentration 1.0 uM
[41] = target: Mitogen-activated protein kinase kinase kinase kinase 3 (Homo sapiens) (UniProt Q8IVH8); assay: MAP4K3(h) Millipore kinase panel; settings: Compound concentration 1.0 uM

Fibroblast growth factor receptor 2 (Homo sapiens), sequence (P21802 22-821 limits assumed): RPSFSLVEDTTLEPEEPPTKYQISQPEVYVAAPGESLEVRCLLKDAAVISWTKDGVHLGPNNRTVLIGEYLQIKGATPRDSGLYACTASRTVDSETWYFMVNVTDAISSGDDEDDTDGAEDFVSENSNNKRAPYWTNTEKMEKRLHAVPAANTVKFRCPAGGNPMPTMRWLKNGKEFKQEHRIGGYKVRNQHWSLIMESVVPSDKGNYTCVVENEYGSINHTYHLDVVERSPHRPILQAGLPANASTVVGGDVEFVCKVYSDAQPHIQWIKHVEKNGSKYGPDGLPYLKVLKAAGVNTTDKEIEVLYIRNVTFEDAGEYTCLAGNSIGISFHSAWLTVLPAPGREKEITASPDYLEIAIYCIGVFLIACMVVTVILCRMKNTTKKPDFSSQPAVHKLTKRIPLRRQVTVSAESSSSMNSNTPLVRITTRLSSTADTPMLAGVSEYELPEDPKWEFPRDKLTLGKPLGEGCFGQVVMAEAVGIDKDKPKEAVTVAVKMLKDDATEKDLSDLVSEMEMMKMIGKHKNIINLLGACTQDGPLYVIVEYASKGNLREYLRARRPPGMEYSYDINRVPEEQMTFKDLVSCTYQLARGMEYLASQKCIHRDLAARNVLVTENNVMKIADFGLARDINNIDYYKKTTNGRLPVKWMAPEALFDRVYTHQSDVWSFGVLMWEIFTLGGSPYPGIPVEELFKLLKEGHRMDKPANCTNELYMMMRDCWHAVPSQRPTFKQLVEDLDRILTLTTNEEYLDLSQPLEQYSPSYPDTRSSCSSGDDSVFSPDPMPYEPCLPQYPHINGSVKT
Dual specificity tyrosine-phosphorylation-regulated kinase 1B (Homo sapiens), sequence (Q9Y463 whole entry, looked up): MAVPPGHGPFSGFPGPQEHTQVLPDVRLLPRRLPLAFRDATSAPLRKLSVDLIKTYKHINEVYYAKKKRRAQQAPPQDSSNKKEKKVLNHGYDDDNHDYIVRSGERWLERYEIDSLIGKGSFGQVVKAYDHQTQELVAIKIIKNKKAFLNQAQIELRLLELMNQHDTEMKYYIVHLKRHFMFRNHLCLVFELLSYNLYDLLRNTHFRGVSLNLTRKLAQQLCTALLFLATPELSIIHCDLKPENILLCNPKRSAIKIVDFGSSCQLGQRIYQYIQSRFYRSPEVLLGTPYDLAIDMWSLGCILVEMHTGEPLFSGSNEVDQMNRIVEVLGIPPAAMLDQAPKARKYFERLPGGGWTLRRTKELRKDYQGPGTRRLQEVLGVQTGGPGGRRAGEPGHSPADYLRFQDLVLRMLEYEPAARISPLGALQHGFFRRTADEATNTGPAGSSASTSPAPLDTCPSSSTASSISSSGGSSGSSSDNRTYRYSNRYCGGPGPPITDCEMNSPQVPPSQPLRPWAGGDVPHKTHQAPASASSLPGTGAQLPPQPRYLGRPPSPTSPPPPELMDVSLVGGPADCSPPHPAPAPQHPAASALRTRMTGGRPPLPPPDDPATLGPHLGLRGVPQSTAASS

`CC[C@@H](Nc1c(C#N)c(-c2ccc(-c3cccc(C)c3F)cc2)nc2cnccc12)C(=O)O` [BAY-091] showed an inhibition [1] of 12.1%, an inhibition [2] of 9.63% and an inhibition [3] of 29.5%. It also gave an inhibition [4] of -1.14%, an inhibition [5] of 19.1% and an inhibition [6] of -0.68%. For the same molecule, the inhibition [7] was 12.7%, the inhibition [8] was 5.49% and the inhibition [9] was -2%. It also gave an inhibition [10] of -3.86%, an inhibition [11] of 8.53% and an inhibition [12] of 5.85%. It also gave an inhibition [13] of 11.3%, an inhibition [14] of 74% and an inhibition [15] of 13%. For the same molecule, the inhibition [16] was 7%, the inhibition [17] was 15.1% and the inhibition [18] was 1.16%. It also gave an inhibition [19] of 5.14%, an inhibition [20] of 12.6% and an inhibition [21] of 21%. The inhibition [22] was 8.64%, the inhibition [23] was -6.21% and the inhibition [24] was 25%. It also gave an inhibition [25] of 9.92%, an inhibition [26] of 50.1% and an inhibition [27] of 6.77%. It also gave an inhibition [28] of 24.6%, an inhibition [29] of -5.79% and an inhibition [30] of -6.79%. For the same molecule, the inhibition [31] was 3.94%, the inhibition (D(1A) dopamine receptor) was 15% and the inhibition [32] was 1%. For the same molecule, the inhibition [33] was -0.55%, the inhibition [34] was -2.53% and the inhibition [35] was 23.8%. It also gave an inhibition [36] of 14%, an inhibition [37] of -2% and an inhibition [38] of -9.06%. The inhibition [39] was -1%, the inhibition [40] was 13.3% and the inhibition [41] was 8.29%.
